Reference: US11912679B2, “Aryl alkynamide derivatives” (Astellas Pharma, Inc., priority 2022, dated 2024)

Legend:
IRF pathway of THP-1 = test: Test on the activity of IRF pathway of THP-1 (THP1-Dual reporter cells stimulated with 2'3'-cGAMP); type: cell-based; conditions: Homo sapiens, PMA-treated, 2'3'-cGAMP 5 ug/mL, QUANTI-Luc readout, read-out: IC50 of inhibition of the activity of IRF pathway
Protocol: 0.3 uM of PMA (phorbol myristate acetate, SIGMA, P1585) was added to THP1-Dual™ cells (NF-κB-SEAP IRF-Luc Reporter Monocytes, Invivogen, thpd-nfis), and the cells were cultured at 37° C. for 1 day in RPMI1640 with 10% Fetal Bovine Serum (FBS). A compound with a known concentration was added, and the cells were incubated at room temperature for 1 hour. Mammalian (non-canonical) CDN, cyclic [G(2′,5′)pA(3′,5′)p] (2′3′-cGAMP, Invivogen, tlrl-nacga23) was added to a final concentration of 5 ug/mL, and the cells were cultured at 37° C. On the following day, QUANTI-Luc™ (Secreted luciferase detection medium, Invivogen, rep-qlc) was added to the culture solution and the activity of IRF pathway was measured using a microplate reader. The inhibition ratio at each concentration was determined, where the activity of IRF pathway with no addition of the test compound or 2′3′-cGAMP was defined as 100% inhibition and the activity of IRF pathway with no addition of the test compound and with addition of 2′3′-cGAMP was defined as 0% inhibition. The IC50 value was calculated by sigmoid […] model non-linear regression analysis.

IFNβ production = test: Test on IFNβ production in mice plasma (DMXAA-induced); type: in vivo; conditions: male C57BL/6J mice, 1 mg/kg oral, DMXAA 20 mg/kg i.p. after 1 hour, plasma 4 hours later
Protocol: Male C57BL/6J mice (8-12-weeks-old) were administered orally either vehicle or 1 mg/kg of test compounds. After 1 hour, 5,6-Dimethylxanthenone-4-acetic acid (DMXAA) (BLD Pharmatech Ltd, BD126695) was administered intraperitoneally at a dose of 20 mg/kg. Four hours later, the mice were euthanized, and the plasma was collected. Plasma concentration of IFNβ was measured by an enzyme-linked immunosorbent assay method using an AlphaLISA Mouse IFNβ Detection Kit (Parkin Elmer, AL586C), and the inhibition ratio to the vehicle administration group was calculated.

saliva production = test: Test on drug-induced Sjogren's syndrome-like salivary dysfunction in mice; type: in vivo; conditions: female C57BL/6J mice, DMXAA 20 mg/kg s.c. four times weekly, test compound oral once a day for 8 days
Protocol: Female C57BL/6J mice (8-10-weeks-old) were injected subcutaneously with 20 mg/kg of DMXAA or its vehicle, 5% NaHCO3, four times at weekly intervals. From the day after the last DMXAA challenge, mice were orally administered the test compound or its vehicle once a day for 8 days. On the following day, saliva was collected from mice using a cotton swab under awake conditions, and saliva weight during 15 min was measured and evaluated as an indicator of salivary gland function.

| SMILES | IC50 (IRF pathway of THP-1) [nM] | Inh (%): inhibition ratio of the production of IFNβ to the vehicle administration group (IFNβ production) [%] | saliva production (saliva weight during 15 min) (saliva production) |
| --- | --- | --- | --- |
| O=C(C#Cc1ccc(-c2ccccc2)c(C(F)(F)F)c1)N1C[C@@H](O)[C@@H](O)C1 [Example 33, 1-[(3R,4S)-3,4-dihydroxypyrrolidin-1-yl]-3-[2-(trifluoromethyl)[1,1′-biphenyl]-4-yl]prop-2-yn-1-one] | 136 | 92 | significantly improved saliva production |
| NC(=O)C1CCN(C(=O)C#Cc2ccc(-c3ccccc3)c(C(F)(F)F)c2)CC1 [Example 34, 1-{3-[2-(trifluoromethyl)[1,1′-biphenyl]-4-yl]prop-2-ynoyl}piperidine-4-carboxamide] | 230 | 90 | significantly improved saliva production |
| O=C(C#Cc1ccc(-c2ccccc2)c(C(F)(F)F)c1)NC[C@H](O)CO [Example 35, N-[(2S)-2,3-dihydroxypropyl]-3-[2-(trifluoromethyl)[1,1′-biphenyl]-4-yl]prop-2-ynamide] | 466 | 83 | – |
| O=C(C#Cc1ccc(-c2ccccc2)c(C(F)(F)F)c1)NC[C@@H](O)CO [Example 36, N-[(2R)-2,3-dihydroxypropyl]-3-[2-(trifluoromethyl)[1,1′-biphenyl]-4-yl]prop-2-ynamide] | 615 | 85 | – |
| O=C(C#Cc1ccc(-c2ccccc2)c(C(F)(F)F)c1)N1C[C@@H](O)[C@H](O)C1 [Example 43, 1-[(3R,4R)-3,4-dihydroxypyrrolidin-1-yl]-3-[2-(trifluoromethyl)[1,1′-biphenyl]-4-yl]prop-2-yn-1-one] | 201 | 87 | – |
| O=C(C#Cc1ccc(-c2ccccc2)c(C(F)(F)F)c1)N1C[C@H](O)[C@@H](O)C1 [Example 44, 1-[(3S,4S)-3,4-dihydroxypyrrolidin-1-yl]-3-[2-(trifluoromethyl)[1,1′-biphenyl]-4-yl]prop-2-yn-1-one] | 174 | 82 | – |
| O=C(C#Cc1ccc(-c2ccccc2)c(C(F)(F)F)c1)N1CC(CO)(CO)C1 [Example 46, 1-[3,3-bis(hydroxymethyl)azetidin-1-yl]-3-[2-(trifluoromethyl)[1,1′-biphenyl]-4-yl]prop-2-yn-1-one] | 150 | 69 | – |
| N=S1(=O)CCN(C(=O)C#Cc2ccc(-c3ccccc3)c(C(F)(F)F)c2)CC1 [Example 99, 1-imino-4-{3-[2-(trifluoromethyl)[1,1′-biphenyl]-4-yl]prop-2-ynoyl}-1λ^6-thiomorpholin-1-one] | 102 | 68 | significantly improved saliva production |
| CN(Cc1cc(C#CC(=O)N2C[C@@H](O)[C@@H](O)C2)ccc1-c1ccccc1C(F)(F)F)C1CC1 [Example 123] | 143 | – | – |
| CS(=O)(=O)NCc1cc(C#CC(=O)N2C[C@@H](O)[C@@H](O)C2)ccc1-c1ccccc1C(F)(F)F [Example 124] | 2000 | – | – |
| CS(=N)(=O)CCNC(=O)C#Cc1ccc(-c2ccccc2)c(C(F)(F)F)c1 (centres unmarked) [Example 125] | 322 | – | – |
| CC(C)Oc1cc(C#CC(=O)N2C[C@@H](O)[C@@H](O)C2)ccc1-c1ccccc1C(F)(F)F [Example 126] | 372 | – | – |
| CN[C@@H]1CCN(C(=O)C#Cc2ccc(-c3ccccn3)c(C(F)(F)F)c2)C1 [Example 127, 1-[(3R)-3-(methylamino)pyrrolidin-1-yl]-3-[4-(pyridin-2-yl)-3-(trifluoromethyl)phenyl]prop-2-yn-1-one] | 529 | – | – |
| C#CCOc1ccccc1-c1ccc(C#CC(=O)N2C[C@@H](O)[C@@H](O)C2)cc1C(F)(F)F [Example 129, 1-[(3R,4S)-3,4-dihydroxypyrrolidin-1-yl]-3-{2′-[(prop-2-yn-1-yl)oxy]-2-(trifluoromethyl)[1,1′-biphenyl]-4-yl}prop-2-yn-1-one] | 242 | – | – |
| CS(=O)(=O)NCCCN(CCO)C(=O)C#Cc1ccc(-c2ccccc2)c(C(F)(F)F)c1 [Example 130, N-(2-hydroxyethyl)-N-{3-[(methanesulfonyl)amino]propyl}-3-[2-(trifluoromethyl)[1,1′-biphenyl]-4-yl]prop-2-ynamide] | 427 | – | – |
| O=C(C#Cc1ccc(-c2ccccc2C(F)(F)F)cc1)N1C[C@@H](O)[C@@H](O)C1 [Example 131, 1-[(3R,4S)-3,4-dihydroxypyrrolidin-1-yl]-3-[2′-(trifluoromethyl)[1,1′-biphenyl]-4-yl]prop-2-yn-1-one] | 578 | – | – |
| N=S1(=O)CCN(C(=O)C#Cc2cnc(-c3ccc(Cl)cc3C(F)(F)F)nc2)CC1 [Example 132] | 179 | – | – |
| O=C(C#Cc1ccc(-c2ccccc2C(F)(F)F)c(CO)c1)N1C[C@@H](O)[C@@H](O)C1 [Example 133, 1-[(3R,4S)-3,4-dihydroxypyrrolidin-1-yl]-3-[2-(hydroxymethyl)-2′-(trifluoromethyl)[1,1′-biphenyl]-4-yl]prop-2-yn-1-one] | 731 | – | – |
